# Measurements reported in US12187684B2, “Benzimidazole derivatives as modulators of retinoid-related orphan receptor gamma (RORγ) and pharmaceutical use thereof” (Jiangsu Hengrui Medicine Co., Ltd., priority 2018, dated 2025).
# Target: T1, RORγ LBD-GST tagged (Homo sapiens, UniProt P51449)
# T1 construct: RORγ LBD-GST tagged (Cat No. RORC-114H, Creative Biomart); purchased Creative Biomart RORC-114H
# T1 sequence (P51449 269-508 limits assumed): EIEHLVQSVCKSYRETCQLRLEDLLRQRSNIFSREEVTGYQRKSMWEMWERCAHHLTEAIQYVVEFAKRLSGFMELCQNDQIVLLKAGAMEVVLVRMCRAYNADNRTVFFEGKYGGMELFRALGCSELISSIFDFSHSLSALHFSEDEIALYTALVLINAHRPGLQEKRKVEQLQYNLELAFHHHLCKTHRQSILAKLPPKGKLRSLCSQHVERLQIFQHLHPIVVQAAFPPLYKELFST
# Experiment: LanthaScreen TR-FRET RORγ coactivator assay
# Type: biochemical
# Conditions: Fluorescein-D22 coactivator peptide, 1 hour room temperature
# From the text: LanthaScreen TR-FRET Retinoid-Related Orphan Receptor Gamma (RORγ) Coactivator Assay Materials and Reagents • 1. […] Fluorescein-D22 coactivator peptide (Cat No. PV4386, Invitrogen) • 3. LanthaScreen™ Tb anti-GST antibody (Cat No. PV3550, Invitrogen) • 4. TR-FRET coregulatory buffer D (Cat No, PV4420, Invitrogen) • 5. DTT (Cat No. P2325, Fisher) • 6. […] Tecan Infinite M1000 plate reader (Tecan) Experimental Procedure Prepare Complete TR-FRET Coregulator Buffer D by adding 1 M DTT to TR-FRET Coregulator Buffer D to the final concentration of 5 mM DTT. Make compound dilution in Complete TR-FRET Coregulator Buffer D. Highest dose is 3 μM, 7-folder dilution for total 7 doses. Add 10 μL to each well of a 384-well plate. For the negative and positive controls, add 10 μL of Complete TR-FRET Coregulator Buffer D. Prepare RORγ LBD using Complete TR-FRET Coregulator Buffer D. The final concentration of RORγ LBD is 25 ng/reaction. Add 5 μL RORγ LBD to all the wells of the 384-well assay plate except negative wells which adding 5 μL Complete TR-FRET Coregulator Buffer D. Prepare a solution containing 0.6 μM Fluorescein-D22 and 8 nM Tb anti-GST antibody using Complete TR-FRET Coregulator Buffer D. Add 5 μL to all wells of the 384-well assay plate. Briefly and gently mix the 384-well plate on a plate shaker and incubate at room temperature protected from light for 1 hour. The plate may be sealed with a cover to minimize evaporation. Read the plate at wavelengths of 520 nm and 495 nm on Tecan Infinite M1000. IC50 values were calculated using GraphPad Prism by plotting the logarithm of compounds concentration versus percent inhibition.
row,Compound,IC50
1,"CC(C)Oc1ccccc1-c1cc2nc(C(CCO)c3ccc(S(=O)(=O)CC4CC4)cc3)[nH]c2cc1Cl (single isomer, unassigned) [3-(6-chloro-5-(2-isopropoxyphenyl)-1H-benzo[d]imidazol-2-yl)-3-(4-((cyclopropylmethyl)sulfonyl)phenyl)propan-1-ol]",0.787 µM
2,"CC(C)Oc1ccccc1-c1cc2nc(C(CC(N)=O)c3ccc(S(=O)(=O)CC4CC4)cc3)[nH]c2cc1Cl (single isomer, unassigned) [3-(6-chloro-5-(2-isopropoxyphenyl)-1H-benzo[d]imidazol-2-yl)-3-(4-((cyclopropylmethyl)sulfonyl)phenyl)propanamide]",1.41 µM
3,"CCS(=O)(=O)c1ccc(C(O)c2nc3c(Cl)c(-c4ccccc4)c(Cl)cc3[nH]2)cc1 (stereo not shown) [Example 2, (4,6-dichloro-5-phenyl-1H-benzo[d]imidazol-2-yl)(4-(ethylsulfonyl)phenyl)methanol]",0.467 µM
4,"CCS(=O)(=O)c1ccc(Cc2nc3c(Cl)c(-c4ccccc4OC(C)C)c(Cl)cc3[nH]2)cc1 [Example 8, 4,6-dichloro-2-(4-(ethylsulfonyl)benzyl)-5-(2-isopropoxyphenyl)-1H-benzo[d]imidazole]",0.903 µM
5,"CCS(=O)(=O)c1ccc(C(O)c2nc3c(Cl)c(-c4cc(Cl)ccc4Cl)c(Cl)cc3[nH]2)cc1 (stereo not shown) [Example 15, (4,6-dichloro-5-(2,5-dichlorophenyl)-1H-benzo[d]imidazol-2-yl)(4-(ethylsulfonyl)phenyl)methanol]",0.787 µM
6,"CCOc1ccccc1-c1c(Cl)cc2[nH]c(Cc3ccc(S(=O)(=O)CC)cc3)nc2c1Cl [Example 16, 4,6-dichloro-5-(2-ethoxyphenyl)-2-(4-(ethylsulfonyl)benzyl)-1H-benzo[d]imidazole]",0.626 µM
7,"CCS(=O)(=O)c1ccc(Cc2nc3c(Cl)c(-c4ccsc4)c(Cl)cc3[nH]2)cc1 [Example 24, 4,6-dichloro-2-(4-(ethylsulfonyl)benzyl)-5-(thiophen-3-yl)-1H-benzo[d]imidazole]",0.701 µM
8,"CCS(=O)(=O)c1ccc(C(CO)c2nc3c(Cl)c(-c4ccsc4)c(Cl)cc3[nH]2)cc1 (stereo not shown) [Example 25, 2-(4,6-dichloro-5-(thiophen-3-yl)-1H-benzo[d]imidazol-2-yl)-2-(4-(ethylsulfonyl)phenyl)ethanol]",0.789 µM
9,"CCS(=O)(=O)c1ccc(C(O)c2nc3c(Cl)c(-c4ccsc4)c(Cl)cc3[nH]2)cc1 (stereo not shown) [Example 26, (4,6-dichloro-5-(thiophen-3-yl)-1H-benzo[d]imidazol-2-yl)(4-(ethylsulfonyl)phenyl)methanol]",0.465 µM
10,"CCS(=O)(=O)c1ccc(Cc2nc3c(Cl)c(-c4ccccc4N(C)C)c(Cl)cc3[nH]2)cc1 [Example 27, 2-(4,6-dichloro-2-(4-(ethylsulfonyl)benzyl)-1H-benzo[d]imidazol-5-yl)-N,N-dimethylaniline]",0.489 µM
11,"CCS(=O)(=O)c1ccc(C(CO)c2nc3c(Cl)c(-c4ccccc4C(C)C)c(Cl)cc3[nH]2)cc1 (stereo not shown) [Example 37, 2-(4,6-dichloro-5-(2-isopropylphenyl)-1H-benzo[d]imidazol-2-yl)-2-(4-(ethylsulfonyl)phenyl)ethanol]",0.433 µM
12,"CCS(=O)(=O)c1ccc(C(NC(=O)COC)c2nc3c(Cl)c(-c4ccccc4OC(F)F)c(Cl)cc3[nH]2)cc1 (stereo not shown) [Example 41, N-((4,6-dichloro-5-(2-(difluoromethoxy)phenyl)-1H-benzo[d]imidazol-2-yl)(4-(ethylsulfonyl)phenyl)methyl)-2-methoxyacetamide]",0.683 µM
13,"CCS(=O)(=O)c1ccc(C(N)c2nc3c(Cl)c(-c4ccccc4OC(F)(F)F)c(Cl)cc3[nH]2)cc1 (stereo not shown) [Example 43, (4,6-dichloro-5-(2-(trifluoromethoxy)phenyl)-1H-benzo[d]imidazol-2-yl)(4-(ethylsulfonyl)phenyl)methanamine]",0.656 µM

# Stronger by IC50, values ahead:
row,IC50,Compound
1,0.348 µM,"CCS(=O)(=O)c1ccc(Cc2nc3c(Cl)c(-c4ccccc4C(C)C)c(Cl)cc3[nH]2)cc1 [Example 36, 4,6-dichloro-2-(4-(ethylsulfonyl)benzyl)-5-(2-isopropylphenyl)-1H-benzol[d]imidazole]"
2,0.242 µM,"CCS(=O)(=O)c1ccc(C(CO)c2nc3c(Cl)c(-c4ccccc4F)c(Cl)cc3[nH]2)cc1 (stereo not shown) [Example 11, 2-(4,6-dichloro-5-(2-fluorophenyl)-1H-benzo[d]imidazol-2-yl)-2-(4-(ethylsulfonyl)phenyl)ethanol]"
3,0.219 µM,"CCS(=O)(=O)c1ccc(C(CO)c2nc3c(Cl)c(-c4ccccc4C#N)c(Cl)cc3[nH]2)cc1 (stereo not shown) [Example 22, 2-(4,6-dichloro-2-(1-(4-(ethylsulfonyl)phenyl)-2-hydroxyethyl)-1H-benzo[d]imidazol-5-yl)benzonitrile]"
4,0.21 µM,"NC(=O)CC(c1ccc(S(=O)(=O)CC2CC2)cc1)c1nc2cc(-c3ccccc3OC(F)F)c(Cl)cc2[nH]1 (single isomer, unassigned) [3-(6-chloro-5-(2-(difluoromethoxy)phenyl)-1H-benzo[d]imidazol-2-yl)-3-(4-((cyclopropylmethyl)sulfonyl)phenyl)propanamide]"
5,0.113 µM,"CCS(=O)(=O)c1ccc(C(NC(=O)c2c(C)noc2C)c2nc3c(Cl)c(-c4ccccc4OC(F)F)c(Cl)cc3[nH]2)cc1 (stereo not shown) [Example 42, N-((4,6-dichloro-5-(2-(difluoromethoxy)phenyl)-1H-benzo[d]imidazol-2-yl)(4-(ethylsulfonyl)phenyl)methyl)-3,5-dimethylisoxazole-4-carboxamide]"
6,0.106 µM,"CCS(=O)(=O)c1ccc(C(O)c2nc3c(Cl)c(-c4ccccc4F)c(Cl)cc3[nH]2)cc1 (stereo not shown) [Example 12, (4,6-dichloro-5-(2-fluorophenyl)-1H-benzo[d]imidazol-2-yl)(4-(ethylsulfonyl)phenyl)methanol]"
7,0.097 µM,"CCOc1ccccc1-c1c(Cl)cc2[nH]c(C(CO)c3ccc(S(=O)(=O)CC)cc3)nc2c1Cl (stereo not shown) [Example 17, 2-(4,6-dichloro-5-(2-ethoxyphenyl)-1H-benzo[d]imidazol-2-yl)-2-(4-(ethylsulfonyl)phenyl)ethanol]"
8,0.093 µM,"CCS(=O)(=O)c1ccc(C(CCO)c2nc3c(Cl)c(N4CCC(F)(F)CC4)c(Cl)cc3[nH]2)cc1 (single isomer, unassigned) [3-(4,6-dichloro-5-(4,4-difluoropiperidin-1-yl)-1H-benzo[d]imidazol-2-yl)-3-(4-(ethylsulfonyl)phenyl)propan-1-ol]"
9,0.083 µM,"CCS(=O)(=O)c1ccc(C(NC(C)=O)c2nc3c(Cl)c(-c4ccccc4OC(F)F)c(Cl)cc3[nH]2)cc1 (stereo not shown) [Example 40, N-((4,6-dichloro-5-(2-(difluoromethoxy)phenyl)-1H-benzo[d]imidazol-2-yl)(4-(ethylsulfonyl)phenyl)methyl)acetamide]"
10,0.081 µM,"O=S(=O)(CC1CC1)c1ccc(C(CCO)c2nc3cc(-c4ccccc4OC(F)F)c(Cl)cc3[nH]2)cc1 (single isomer, unassigned) [3-(6-chloro-5-(2-(difluoromethoxy)phenyl)-1H-benzo[d]imidazol-2-yl)-3-(4-((cyclopropylmethyl)sulfonyl)phenyl)propan-1-ol]"
11,0.057 µM,"CCS(=O)(=O)c1ccc(C(CC(N)=O)c2nc3c(Cl)c(N4CCC(F)(F)CC4)c(Cl)cc3[nH]2)cc1 (single isomer, unassigned) [3-(4,6-dichloro-5-(4,4-difluoropiperidin-1-yl)-1H-benzo[d]imidazol-2-yl)-3-(4-(ethylsulfonyl)phenyl)propanamide]"
12,0.056 µM,"CCS(=O)(=O)c1ccc(C(O)c2nc3c(Cl)c(-c4ccccc4OC(C)C)c(Cl)cc3[nH]2)cc1 (stereo not shown) [Example 10, (4,6-dichloro-5-(2-isopropoxyphenyl)-1H-benzo[d]imidazol-2-yl)(4-(ethylsulfonyl)phenyl)methanol]"
13,0.045 µM,"CCS(=O)(=O)c1ccc(Cc2nc3c(Cl)c(-c4ccccc4OC(F)F)c(Cl)cc3[nH]2)cc1 [Example 28, 4,6-dichloro-5-(2-(difluoromethoxy)phenyl)-2-(4-(ethylsulfonyl)benzyl)-1H-benzo[d]imidazole]"
14,0.014 µM,"NC(=O)CC(c1ccc(S(=O)(=O)CC2CC2)cc1)c1nc2cc(Cl)c(N3CCC(F)(F)CC3)c(Cl)c2[nH]1 (single isomer, unassigned) [3-(4-((cyclopropylmethyl)sulfonyl)phenyl)-3-(5,7-dichloro-6-(4,4-difluoropiperidin-1-yl)-1H-benzo[d]imidazol-2-yl)propanamide]"
15,0.013 µM,"CCOc1ccccc1-c1c(Cl)cc2[nH]c(C(O)c3ccc(S(=O)(=O)CC)cc3)nc2c1Cl (stereo not shown) [Example 18, (4,6-dichloro-5-(2-ethoxyphenyl)-1H-benzo[d]imidazol-2-yl)(4-(ethylsulfonyl)phenyl)methanol]"
